Measured values: patent US10940139B2, “Compounds that interact with the Ras superfamily for the treatment of cancers, inflammatory diseases, rasopathies, and fibrotic disease” (Shy Therapeutics LLC, priority 2017, dated 2021)

target: KRas G12D/Q61H double mutant (Homo sapiens (Human), UniProt P01116, G12D/Q61H); test: Ras GTP binding domain inhibition assay (labeled GTP); details: 20 μM compound; KRas G12D/Q61H double mutant; read-out: % Inhibition at 20 μM of K-Ras mutant and wild-type protein, KRas G12D Q61H
Sequence (P01116-2 other isoform, or with tags, fused parts or gaps G12D/Q61H): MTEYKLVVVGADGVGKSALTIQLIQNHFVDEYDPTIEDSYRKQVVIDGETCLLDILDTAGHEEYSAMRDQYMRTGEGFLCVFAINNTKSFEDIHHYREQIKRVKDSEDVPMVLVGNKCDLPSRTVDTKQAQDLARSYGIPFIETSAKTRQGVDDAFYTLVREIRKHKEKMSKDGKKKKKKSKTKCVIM
Experimental: Buffer-I: • 50 mM Tris, pH 7.5 • 150 mM NaCl (optional) • 1 mM MgCl2 • 1 mM DTT. • KRas G12D mutant protein was expressed as a His-tagged protein. Purified His-KRas G12D protein was diluted in buffer-I to a final concentration of 3-10 μg/ml. • 200 μl of the diluted His-KRas G12D protein was added to a nickel coated 96 well plate and incubated overnight at 4° C. • The next day, wells were washed 3× in 200 μl of Buffer-I. • Then 200 μl of Buffer-I were added to each well in the presence of 1% DMSO. • Tested compounds were added to the protein-coated wells at a concentration of 20 μM, and incubated for 3 hours at room temperature. While performing IC50 measurements a serial dilution of all tested concentrations was prepared.
Then 22 μl of Cy3-GTP or Cy5-GTP was added to each well. The labeled GTP was incubated for 45 min. at room temperature. • Following GTP incubation, wells were washed 3× in Buffer-I, and 200 μl of Buffer-I were added to each well. • Following washes, the amount of bound labeled-GTP was measured with an Eppendorf AF2200 plate reader.
By substituting KRas G12D mutant protein with KRas G12C mutant, KRas wild type, KRas Q61H mutant, KRas G12D/Q61H double mutant or KRas G12C/Q61H double mutant under the assay conditions described above, KRas G12C mutant KRas wild type, KRas Q61H mutant, KRas G12D/Q61H double mutant and KRas G12C/Q61H double mutant inhibition, respectively, were each determined.

Row | SMILES | inhibition at 20 µM [%]
1 | Cc1n[nH]c(C2CN(C(=O)c3cnc(C)s3)CCO2)n1 (stereo not shown) | 1 to 25
2 | NC(=O)CCN1CCOC(c2nc(-c3ccccc3)cs2)C1 (stereo not shown) | 1 to 25
3 | NC(=O)c1cc(-c2csc(N3CCCCC3)n2)ccc1O | 1 to 25
4 | CC(CC(N)=O)Nc1cc(C(F)(F)F)nc(-c2ccccn2)n1 (stereo not shown) | 1 to 25
5 | Cc1nc(CN(C)CC23CC4CC(CC(C4)C2)C3)oc1C | 1 to 25
6 | CC(NC(=O)C1CSC(c2ccccc2)=N1)c1ccccn1 (stereo not shown) | 1 to 25
7 | CCN(C(=O)c1cnn(-c2ccccc2)n1)c1ccccc1 | 1 to 25
8 | Cc1nc2ccccc2n1CCNC(=O)c1cc(S(=O)(=O)N(C)C)ccc1N1CCOCC1 | 1 to 25
9 | O=[N+]([O-])c1ccc(O)c2ncccc12 | 25 to 50
10 | COC(=O)CCc1sc(NC2CCCCC2)nc1-c1ccc(OC)cc1 | 25 to 50
11 | Cc1ccc2c(c1)C1CN(C)CCC1N2Sc1ccc(Cl)cc1 (stereo not shown) | 25 to 50
12 | COc1ccc(-c2oc3ncn(CCCn4ccnc4)c(=N)c3c2-c2ccc(OC)cc2)cc1 | 25 to 50
13 | Cc1ccc(OS(=O)(=O)NCCC(c2ccccc2)c2ccccc2)cc1 | 1 to 25
14 | CC(=O)c1c(F)cccc1N1CCN(c2cccc(C(F)(F)F)c2)CC1 | 25 to 50
15 | CN(Cc1ccccc1C#N)Cc1ccccc1N1CCCCC1 | 25 to 50
16 | O=c1c(Cl)cc(C(F)(F)F)cn1Cc1csc(COc2ccc(Cl)cc2)n1 | 1 to 25
17 | CCOC(=O)c1c(NC(=O)c2c(N)n(CCCOC)c3nc4ccccc4nc23)sc2c1CCCC2 | 1 to 25
18 | CCOC(=O)c1ccc2c(c1)nc(C1CCN(S(=O)(=O)c3cccs3)CC1)n2CC | 25 to 50
19 | Cc1c(C(=O)N(CCc2ccccc2)Cc2ccccc2)cccc1[N+](=O)[O-] | 25 to 50
20 | C=CCOc1ccc(C(=O)c2ccccc2)c(OCC(=O)NC2(C#N)CCCC2)c1 | 25 to 50
21 | COC(=O)c1ccc(CN2CCN(c3cccc(C(F)(F)F)c3)CC2)cc1 | 25 to 50
22 | CCCCc1ccc([N+]2=C3SCCCN3CC2(O)c2ccc(C)cc2)cc1 (stereo not shown) | 25 to 50
23 | CCOc1ccc(S(=O)(=O)N(CC(=O)N2CCCc3ccccc32)Cc2ccco2)cc1 | 25 to 50

Row | SMILES | inhibition at 20 µM [%]
24 | COC(=O)c1ccc(COC(=O)c2oc3ccccc3c2COC(C)C)o1 | 25 to 50
25 | Cc1cc(C(=O)COC(=O)c2ccccc2[S+](C)[O-])c(C)n1CCC1=CCCCC1 (stereo not shown) | 1 to 25
26 | Cc1ccc(CN(Cc2ccco2)C(=O)C(c2ccccc2)c2ccccc2)o1 | 25 to 50
27 | CCOC(=O)c1c(-c2ccc(OC)cc2)oc2ccc(OCC=C(C)C)cc12 | 25 to 50
28 | COc1ccc(CCN/C(=N/C(=O)Nc2ccccc2)Nc2nc(C)cc(C)n2)cc1OC | 25 to 50
29 | CCCc1cc(=O)oc2cc(OCc3cc(C(=O)OC)c(C)o3)ccc12 | 25 to 50
30 | COc1ccc(CN(C)C(=O)c2cc(Br)c(Br)s2)c(OC)c1 | 25 to 50
31 | CC(C)(CNc1ccc(S(=O)(=O)N(Cc2ccccc2)Cc2ccccc2)cn1)N1CCOCC1 | 25 to 50
32 | CCOc1ccc(Nc2ccc([N+](=O)[O-])cc2S(=O)(=O)N(CC)CC)cc1 | 25 to 50
33 | C=CCN(Cc1ccc(Cl)s1)C(=O)COC(=O)c1cc(OC)ccc1O | 25 to 50
34 | Cc1cc2oc(=O)cc(CN(C)Cc3c(C)nn(Cc4ccccc4Cl)c3C)c2cc1C | 25 to 50
35 | COC(=O)C(NCc1ccc(-c2ccc(Cl)cc2)o1)c1ccccc1 (stereo not shown) | 25 to 50
36 | COCCNc1ccc([N+](=O)[O-])cc1C(=O)OCCOc1ccccc1 | 25 to 50
37 | CC(=O)c1ccccc1OCCN(c1nccs1)S(=O)(=O)c1ccccc1 | 25 to 50
38 | O=C(NCC(F)(F)F)c1ccc(CN(Cc2cc(Cl)cc3c2OCCO3)C2CC2)cc1 | 25 to 50
39 | O=C(c1ccc(-c2ccccc2F)o1)N(Cc1ccco1)C1CCCC1 | 51 to 75
40 | COc1ccc(CN(C(C)C2CC2)S(=O)(=O)c2cccs2)cc1 (stereo not shown) | 25 to 50
41 | CC1CCCN(c2nc(-c3ccc(O)cc3O)cs2)C1 (stereo not shown) | 25 to 50
42 | CCN(C(=O)CCc1c(C)nc(-c2ccccn2)nc1O)C1CCCC1 | 51 to 75
43 | COC(=O)c1c(CN(C)Cc2nccn2CC(F)(F)F)nc2ccccc2c1-c1ccccc1 | 25 to 50
44 | CCc1nc2ccc(C(=O)Nc3ccccc3C(=O)N3CC(C)OC(C)C3)cc2nc1CC (stereo not shown) | 25 to 50
45 | Cc1ccc(Sc2ccc(S(=O)(=O)NC3CCCC3)cc2)cc1C | 1 to 25
46 | CCOc1ccccc1N1CC(c2nc3ccccc3n2CCC2CCCCC2)CC1=O (stereo not shown) | 25 to 50

Row | SMILES | inhibition at 20 µM [%]
47 | CCc1nc2ccccc2c(C(=O)OCC(=O)c2cc(C)n(CCOC)c2C)c1C | 1 to 25
48 | CN(Cc1ccccc1N1CCOCC1)C(=O)c1ccc(OCc2ccccc2)cc1 | 1 to 25
49 | CCc1oc2ccccc2c1CN(C)C(=O)c1cccc(OCc2c(C)noc2C)c1 | 25 to 50
50 | C=CCn1c(C)cc(C(=O)CSc2nc3ccccc3c(=O)n2C(C)COC)c1C (stereo not shown) | 25 to 50
51 | CCN(CC)S(=O)(=O)c1ccc(C(C)NCc2ccc(Cl)s2)cc1 (stereo not shown) | 25 to 50
52 | CCCCN1CC(c2nc3ccccc3n2CCCCOc2c(C)cccc2C)CC1=O (stereo not shown) | 1 to 25
53 | COc1cccc(CN(C)S(=O)(=O)N(C)Cc2ccc(F)cc2)c1 | 25 to 50
54 | Cc1ccc(OCCn2c(CN3CCCCC3)nc3ccccc32)cc1C | 25 to 50
55 | CCc1ccc(C(=O)c2cc3ccccc3o2)s1 | 25 to 50
56 | Cc1cc(C)c(-c2csc(C3CC3)n2)cc1C | 25 to 50
57 | Cc1ccc(C)c(-c2csc(C3CN(Cc4ccccc4)CCO3)n2)c1 (stereo not shown) | 25 to 50
58 | COC(C)c1nc(CN(Cc2ccc(C#N)cc2)Cc2cccc(F)c2)cs1 (stereo not shown) | 25 to 50
59 | CC[S+]([O-])c1ccccc1C(=O)OCc1ccc(-c2ccccc2C#N)cc1 (stereo not shown) | 25 to 50
60 | Cc1cccc(-n2ccnc2SCCCc2nc(-c3cccs3)no2)c1 | 25 to 50
61 | CCCOc1ccc2ccccc2c1CN(C)C(=O)C1CCCN(c2ncccn2)C1 (stereo not shown) | 25 to 50
62 | CCc1ccccc1OCC(=O)N1N=C(c2ccccc2)CC1(O)C(F)(F)F (stereo not shown) | 25 to 50
63 | CN(Cc1ccc(S(=O)(=O)N(C)C)o1)c1ccccc1-c1ccccc1 | 1 to 25
64 | CC(C)(C)NS(=O)(=O)c1ccccc1CNC(=O)CCC1CCCCC1 | 25 to 50
65 | CCOC(=O)c1ccc2c(c1)n(Cc1occc1C(=O)OC)c(=O)n2CC | 1 to 25
66 | C=CCn1c(C)cc(C(=O)COC(=O)c2ccccc2Oc2ccccc2)c1C | 51 to 75
67 | COc1ccc(-c2csc3nc(C)nc(N(C)Cc4ccco4)c23)cc1OC | 25 to 50
68 | O=C(CCCOc1ccc(Cl)cc1Cl)N1N=CCC1(O)C(F)(F)F (stereo not shown) | 25 to 50
69 | Cc1ccc(CC(C#N)c2c(C#N)c(N)nc(N3CCCCC3)c2C#N)cc1 (stereo not shown) | 1 to 25

Row | SMILES | inhibition at 20 µM [%]
70 | C=CCc1cc(OCC)ccc1OCC(=O)NCc1ccc(OC)cc1 | 25 to 50
71 | CCN(CC(=O)Nc1ccccc1OC)Cc1coc(-c2ccc(C)cc2C)n1 | 25 to 50
72 | O=C(c1ccc(CSc2nc3ccccc3[nH]2)cc1)N1N=CCC1(O)C(F)(F)F (stereo not shown) | 25 to 50
73 | COc1ccc(N(CC(=O)N(c2ccccc2)C(C)C)S(=O)(=O)c2ccccc2C(F)(F)F)cc1 | 25 to 50
74 | CCOc1ccc(Oc2ccc(C(F)(F)F)cc2NC(=O)CC(NC(C)=O)c2ccccc2)cc1 (stereo not shown) | 1 to 25
75 | COc1ccc(C(C)=O)cc1CC(C(=O)c1ccc(C2CCCCC2)cc1)N(C)C (stereo not shown) | 25 to 50
76 | CCOc1ccc(CN(C)CC(=O)Nc2ccc3c(c2)c2ccccc2n3CC)cc1OC | 25 to 50
77 | COC(=O)c1ccc(Oc2ccc(S(=O)(=O)N3CCCCC3)cc2NCc2cc(C)on2)cc1 | 25 to 50
78 | Cc1nc(Cc2nnc(SCc3ccc(-c4ccccc4C#N)cc3)o2)cs1 | 1 to 25
79 | CCCN(CC1CC1)C(=O)COC(=O)c1c(C)nc(-c2cccs2)nc1SC | 1 to 25
80 | COC(=O)c1sccc1S(=O)(=O)NCCCCCc1nc(-c2ccc(C)cc2)no1 | 25 to 50
81 | CCC(C)c1ccc(S(=O)(=O)NC(c2ccccc2)c2ccccn2)cc1 (stereo not shown) | 25 to 50
82 | O=c1c(Cc2cc(Cl)c3cccnc3c2O)c(O)oc2ccccc12 | 25 to 50
83 | CC(C)(C)OC(=O)N1CCCN1c1nc(-c2cccs2)nc2ccccc12 | 25 to 50
84 | CCc1cc(N2CC(Cc3cc(OC)cc(OC)c3)C2)nc(-c2ccncc2)n1 | 1 to 25
85 | CC(C)(COc1ncccc1C(F)(F)F)Nc1nccc(C(F)(F)F)n1 | 25 to 50
86 | OCCN(Cc1ccc(Cl)c(Cl)c1)c1ncc(Br)cn1 | 1 to 25
87 | CCOC(=O)c1c(-c2ccc(Br)cc2)csc1/N=C/N(C)C | 25 to 50
88 | COc1ccccc1CN(Cc1cccs1)C(=O)c1ccc(COC(C)C)cc1 | 25 to 50
89 | COc1ccc(CCNc2nc(-c3cc(C)n(-c4ncn[nH]4)c3C)cs2)cc1OC | 25 to 50
90 | O=c1[nH]c(CN(CCc2ccc(Cl)cc2)Cc2nc3ccsc3c(=O)[nH]2)nc2ccsc12 | 25 to 50
91 | COc1cc(C(=O)NCC(c2cccs2)N(C)C)ccc1OCc1ccccc1Cl (stereo not shown) | 1 to 25
